Source: ChEMBL document CHEMBL2150884, “Inhibition of cell proliferation by quindoline derivative (SYUIQ-05) through its preferential interaction with c-myc promoter G-quadruplex” (J Med Chem, 2011)
Active and inactive are the calls of the source. The calls are words filed in the database; no cut-off is given here.

Columns and labels:
Nucleic Acid [1] = test: Binding affinity to G-quadruplex HTG21 by PCR stop assay; assay type: nucleic-acid assay
Nucleic Acid [2] = test: Inhibition of NM23-H2 interaction with wild type c-myc DNA G-quadruplex expressed in human HeLa cells assessed as dissociation of NM23-H2 from c-myc promoter at 0.05 to 0.1 uM by Ch-IP assay; assay type: cell-based
Nucleic Acid [3] = test: Binding affinity to c-myc Pu27 DNA G-quadruplex in human Ramos cells assessed as down regulation of c-myc protein expression at 0.05 to 0.1 uM after 4 days by Western blot method; assay type: cell-based
Nucleic Acid [4] = test: Binding affinity to c-myc Pu27 DNA G-quadruplex assessed as change in melting temperature by FRET assay; assay type: nucleic-acid assay
HL-60 = test: Cytotoxicity in human HL60 cells by MTT assay; assay type: functional, cell-based
Nucleic Acid [5] = test: Binding affinity to G-quadruplex HTG21 by ITC titration assay; assay type: nucleic-acid assay
CA46 [6] = test: Induction of senescence in human CA46 cells assessed as gaint cells at 0.05 to 0.1 uM after 16 days by beta galactosidase assay; assay type: functional, cell-based
[7] = Cytotoxicity in human GLC82 cells by MTT assay; assay type: functional, cell-based
HeLa = test: Cytotoxicity in human HeLa cells by MTT assay; assay type: functional, cell-based
CA46 [8] = test: Antiproliferative activity against cmyc NHE III1 element-deficient human CA46 cells assessed as cell viability after 20 days; assay type: functional, cell-based
Nucleic Acid [9] = test: Binding affinity to c-myc Pu27 DNA G-quadruplex by PCR stop assay; assay type: nucleic-acid assay
[10] = target: Telomerase reverse transcriptase (Homo sapiens) (UniProt O14746); test: […] in human Ramos cells at 0.1 uM for 16 days by TRF length assay; assay type: cell-based
Nucleic Acid [11] = test: Binding affinity to c-myc Pu27 DNA G-quadruplex in human CA46 cells assessed as down regulation of c-myc transcription at 0.1 uM after 4 days by qRT-PCR; assay type: cell-based
Nucleic Acid [12] = test: Binding affinity to c-myc Pu27 DNA G-quadruplex in human Ramos cells assessed as down regulation of c-myc transcription at 0.1 uM after 4 days by qRT-PCR; assay type: cell-based
Bel-7402 = test: Cytotoxicity in human Bel7402 cells by MTT assay; assay type: functional, cell-based
MGC-803 = test: Cytotoxicity in human MGC803 cells by MTT assay; assay type: functional, cell-based
CA46 [13] = test: Induction of senescence in human CA46 cells assessed as flat cells at 0.05 to 0.1 uM after 16 days by beta galactosidase assay; assay type: functional, cell-based
K562 = test: Cytotoxicity in human K562 cells by MTT assay; assay type: functional, cell-based
Nucleic Acid [14] = test: Binding affinity to G-quadruplex HTG21 assessed as change in melting temperature by FRET assay; assay type: nucleic-acid assay
[15] = Cytotoxicity in human SUNE1 cells by MTT assay; assay type: functional, cell-based
Ramos [16] = test: Induction of senescence in human Ramos cells assessed as flat cells at 0.05 to 0.1 uM after 16 days by beta galactosidase assay; assay type: functional, cell-based
Ramos [17] = test: Antiproliferative activity against human Ramos cells assessed as cell viability at 0.05 uM after 20 days; assay type: functional, cell-based
Nucleic Acid [18] = test: Binding affinity to c-myc Pu27 DNA G-quadruplex by ITC titration assay; assay type: nucleic-acid assay
[19] = target: Telomerase reverse transcriptase (Homo sapiens) (UniProt O14746); test: […] in human Ramos cells at 0.05 to 0.1 uM for 16 days by TRF length assay; assay type: cell-based
[20] = target: Telomerase reverse transcriptase (Homo sapiens) (UniProt O14746); test: […] in human Ramos cells at 0.05 uM for 16 days by TRF length assay; assay type: cell-based
Nucleic Acid [21] = test: Inhibition of POT1 interaction with wild type c-myc DNA G-quadruplex expressed in human HeLa cells assessed as dissociation of POT1 from c-myc promoter at 0.05 to 0.1 uM by Ch-IP assay; assay type: cell-based
Nucleic Acid [22] = test: Binding affinity to c-myc Pu27 DNA G-quadruplex in human Ramos cells assessed as down regulation of TERT protein expression at 0.05 to 0.1 uM after 4 days by Western blot method; assay type: cell-based
Ramos [23] = test: Antiproliferative activity against human Ramos cells assessed as cell viability after 20 days; assay type: functional, cell-based
Nucleic Acid [24] = test: Binding affinity to c-myc Pu27 DNA G-quadruplex in human CA46 cells assessed as down regulation of TERT transcription at 0.1 uM after 4 days by qRT-PCR; assay type: cell-based
Nucleic Acid [25] = test: Binding affinity to c-myc Pu27 DNA G-quadruplex in human CA46 cells assessed as down regulation of c-myc protein expression at 0.05 to 0.1 uM after 4 days by Western blot method; assay type: cell-based
Nucleic Acid [26] = test: Inhibition of NM23-H2 interaction with c-myc DNA G-quadruplex in human HeLa cells assessed as inhibition of c-myc expression at 0.1 uM measured by quantitative RT-PCR analysis; assay type: cell-based
Nucleic Acid [27] = test: Binding affinity to c-myc Pu27 DNA G-quadruplex in human Ramos cells assessed as down regulation of TERT transcription at 0.1 uM after 4 days by qRT-PCR; assay type: cell-based
Nucleic Acid [28] = test: Inhibition of NM23-H2 interaction with c-myc mutant promoter DNA expressed in human HeLa cells assessed as dissociation of NM23-H2 from c-myc promoter at 0.05 to 0.1 uM by Ch-IP assay; assay type: cell-based
Ramos [29] = test: Induction of senescence in human Ramos cells assessed as gaint cells at 0.05 to 0.1 uM after 16 days by beta galactosidase assay; assay type: functional, cell-based
[30] = Cytotoxicity in human CNE2 cells by MTT assay; assay type: functional, cell-based; settings: CNE-2

Sequence of Telomerase reverse transcriptase (Homo sapiens) (O14746 whole entry): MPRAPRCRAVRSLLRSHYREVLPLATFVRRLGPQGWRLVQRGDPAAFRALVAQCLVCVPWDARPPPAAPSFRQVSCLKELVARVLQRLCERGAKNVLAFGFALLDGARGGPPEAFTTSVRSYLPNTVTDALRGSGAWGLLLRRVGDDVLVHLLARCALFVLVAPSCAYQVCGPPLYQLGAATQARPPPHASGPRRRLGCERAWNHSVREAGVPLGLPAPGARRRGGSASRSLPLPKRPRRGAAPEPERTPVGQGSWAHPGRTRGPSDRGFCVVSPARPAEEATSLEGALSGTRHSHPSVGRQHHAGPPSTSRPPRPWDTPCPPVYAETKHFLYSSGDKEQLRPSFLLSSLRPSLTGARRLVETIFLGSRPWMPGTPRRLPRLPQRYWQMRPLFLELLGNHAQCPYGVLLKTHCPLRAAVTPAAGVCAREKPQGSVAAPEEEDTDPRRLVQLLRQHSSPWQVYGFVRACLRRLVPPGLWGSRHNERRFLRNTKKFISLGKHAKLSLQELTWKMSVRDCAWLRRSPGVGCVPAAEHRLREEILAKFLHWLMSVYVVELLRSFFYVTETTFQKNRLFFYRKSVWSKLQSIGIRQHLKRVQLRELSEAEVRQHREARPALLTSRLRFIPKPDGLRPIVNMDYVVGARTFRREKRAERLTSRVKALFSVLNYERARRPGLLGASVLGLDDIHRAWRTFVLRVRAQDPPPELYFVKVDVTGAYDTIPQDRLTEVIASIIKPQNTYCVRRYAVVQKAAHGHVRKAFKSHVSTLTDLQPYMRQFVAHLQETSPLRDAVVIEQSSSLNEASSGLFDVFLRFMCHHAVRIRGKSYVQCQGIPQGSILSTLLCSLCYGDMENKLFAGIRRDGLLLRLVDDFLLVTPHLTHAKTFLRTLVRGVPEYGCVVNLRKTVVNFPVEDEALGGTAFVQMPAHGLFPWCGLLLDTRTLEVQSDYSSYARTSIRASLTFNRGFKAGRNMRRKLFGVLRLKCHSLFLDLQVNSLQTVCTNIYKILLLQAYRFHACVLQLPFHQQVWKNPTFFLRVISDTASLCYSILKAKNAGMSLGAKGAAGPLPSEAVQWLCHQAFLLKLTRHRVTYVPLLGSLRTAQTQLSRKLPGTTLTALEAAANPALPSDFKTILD

**Q.** Which results are given for CN(C)CCCNc1c2ccccc2nc2c1[nH]c1ccccc12?
**A.** IC50 (Nucleic Acid [1]): 2500 nM; inhibition (Nucleic Acid [2]): Active; Activity (Nucleic Acid [3]): Active; ΔTm (Nucleic Acid [4]): 13 °C; IC50 (HL-60): 240 nM; Ka (Nucleic Acid [5]): 1.79 10^4 M^-1; Activity (CA46 [6]): inactive; IC50 [7]: 240 nM; IC50 (HeLa): 240 nM; inhibition (CA46 [8]): inactive; IC50 (Nucleic Acid [9]): 1800 nM; inhibition [10]: Active; Activity (Nucleic Acid [11]): inactive; Activity (Nucleic Acid [12]): Active; IC50 (Bel-7402): 240 nM; IC50 (MGC-803): 240 nM; Activity (CA46 [13]): inactive; IC50 (K562): 240 nM; ΔTm (Nucleic Acid [14]): 10 °C; IC50 [15]: 240 nM; Activity (Ramos [16]): Active; Activity (Ramos [17]): Active; Ka (Nucleic Acid [18]): 4.03 10^4 M^-1; inhibition [19]: Active; inhibition [20]: Active; inhibition (Nucleic Acid [21]): inactive; Activity (Nucleic Acid [22]): Active; Activity (Ramos [23]): Dose-dependent effect; Activity (Nucleic Acid [24]): inactive; Activity (Nucleic Acid [25]): Active; inhibition (Nucleic Acid [26]): Active; Activity (Nucleic Acid [27]): Active; inhibition (Nucleic Acid [28]): inactive; Activity (Ramos [29]): Active; IC50 [30]: 240 nM
